Columns and labels:
integrin αvβ3 = integrin αvβ3 (Homo sapiens, UniProt P05106+P06756); test: Integrin αvβ3 binding affinity test (biotinylated vitronectin competition on immobilized integrin); details: inhibition of biotinylated vitronectin binding
Experimental: Test Example 1 Integrin […] Binding Affinity Test
(§1) 0.2 μg/mL of δvβ3 was immobilized in a 96-well plates (Corning Incorporated) and then blocked using a 1% Block Ace (DS Pharma Biomedical Co., Ltd.) solution, and then the plate was washed with T-PBS (PBS containing 0.05% Tween 20). A 2× concentrated evaluation compound solution (10× concentration of 3.16× dilution from 0.3 μmol/L, buffer (20 mM Tris-HCl pH 7.5, 150 mM NaCl, 1 mM CaCl2), 1 mM MgCl2, 1 mM MnCl2)) and a 4 μg/mL biotinylated vitronectin solution (labeling vitronectin (Upstate Biotechnology Inc.) by using EZ-Link Sulfo-NHS-Biotinylation Kit (Pierce Protein Biology) and then adjusting concentration) were each added to the plate in an amount of 50 μL, and the plate was shaken for 2 hours at room temperature. The plate was washed with T-PBS, a 0.2 μg/mL avidin·peroxidase (Pierce Protein Biology) was added thereto, and the plate was shaken for 1 hour at room temperature. The plate was washed with T-PBS, an o-phenylenediamine (Sigma-Aldrich Co., LLC.) solution was added thereto such that color was produced (stopped using 4 mol/L sulfuric acid), and the absorbance (490 nm, Reference: 595 nm) was measured. The IC50 value was calculated using XLfit 3.0 (ID Business Solutions Ltd.). For each plate, as a QC sample, RGDfV (Bachem AG) was measured in duplicate. […]

integrin αvβ5 = integrin αvβ5 (Homo sapiens, UniProt P06756+P18084); test: Integrin αvβ5 binding affinity test (biotinylated vitronectin competition on immobilized integrin); details: inhibition of biotinylated vitronectin binding
Experimental: Test Example 2 Integrin […] Binding Affinity Test
as §1, with “[…]” for “δvβ3”, “PBST (10 mM Na2HPO4 pH 7.5, 150 mM NaCl, 0.01%” for “T-PBS (PBS containing 0.05%”, “[…],” for “μmol/L,”, “PBST,” for “T-PBS,”, “[…] avidin-peroxidase” for “μg/mL avidin·peroxidase”

U87MG cells [1] = test: Imaging of integrin expression tumor by PET; type: in vivo, mice (Balb/c AJcl-nu/nu); details: 48 hours after administration, 4.8 MBq/mouse caudal vein
Experimental: Test Example 4 Imaging of Integrin Expression Tumor by Positron Emission Tomography (PET) Using [^64Cu]-(Compound A) and [^64Cu]-(Compound B)
After 2 weeks, [^64Cu]-(compound A) was administered at 4.8 MBq/mouse into the caudal vein of the mice with a tumor having a volume of […] to 650 mm^3. After 1, 4, 24, and 48 hours, the mice were imaged by microPET/CT (Inveon, Siemens Healthcare GmbH) under isoflurane anesthesia. […], whole blood was collected from the postcava under deep isoflurane anesthesia, the animals were euthanised, and then the tumor was extracted. The weight of the tumor was measured, the radioactivity was measured using a gamma counter, and the radioactivity concentration in tumor (% ID/g) was calculated. For [^64Cu]-(compound B), imaging was performed by the same method.
FIGS. 1 and 2 show PET images relating to each compound captured at each point in time. […] As a result, a hematoma matching with the image was found in the central portion. At the time of dissection (48 hours after administration), the radioactivity concentration in tumor was 5.6% ID/g.

U87MG cells [2] = test: Radioactivity concentration of labeled compounds in tumor, U87MG subcutaneous transplantation; type: in vivo, mice (Balb/c AJcl-nu/nu); details: caudal vein, 111In 740 kBq, 64Cu and 90Y 500 kBq
Experimental: Test Example 3 Evaluation based on radioactivity concentration of ^111In-labeled compound, ^64Cu-labeled compound, and ^90Y-labeled compound in tumor
After 2 to 3 weeks, at a point in time when the tumor volume became 200 to 500 mm^3, 3 mice were sorted into one group at each point in time. The ^111In-labeled compound (740 k Bq) was administered into the caudal vein, the animals were sacrificed after a certain period of time, and the tumor was extracted. The weight of the tumor was measured, the radioactivity was measured using a gamma counter, and the radioactivity concentration in tumor (% ID/g) was calculated. For the ^64Cu-labeled compound (500 k Bq) and the ^90Y-labeled compound (500 k Bq), the radioactivity concentration in tumor (% ID/g) was calculated by the same method.

[3] = Radiochemical purity after standing at room temperature (reversed-phase TLC); type: physicochemical; details: 22 hours
Experimental: A indium [^111In] chloride solution (80 MBq, 100 μL) was added to a mixture of the compound A (8.5 μg) and a 0.2 mol/L sodium acetate buffer solution (pH 4.0) (1.5 mL). The solution was heated to 100° C. for 15 minutes and then left to stand for 5 minutes at room temperature, thereby obtaining [^111In]-(compound A). […] The radiochemical purity measured immediately after the compound was prepared and measured after 24 hours at room temperature was equal to or higher than 95%.
A yttrium [^90Y] chloride solution (700 MBq, 240 μL) was added to a mixture of the compound (79 μg), gentisic acid (1.8 mg), a 0.6 mol/L sodium acetate buffer solution (pH 4.0, 120 μL), and 0.4 mol/L aqueous sodium hydroxide solution (24 μL). The solution was heated to 100° C. for 20 minutes and then left to stand for 5 minutes at room temperature, thereby obtaining [90^Y]-(compound A). […] The radiochemical purity measured immediately after the compound was prepared and measured after 24 hours at room temperature was equal to or higher than 95%.
A copper [^64Cu] chloride solution (pH 5, 35 MBq, 55 μL) was added to a mixture of the compound A (5.8 μg) and 0.2 mol/L sodium acetate buffer solution (pH 4.0, 219 μL). The solution was heated to 100° C. for 15 minutes and left to stand for 5 minute at room temperature, thereby obtaining [^64Cu]-(compound A). […] The radiochemical purity measured immediately after the compound was prepared and measured after 22 hours at room temperature was equal to or higher than 90%.
A 0.2 mol/L sodium acetate buffer solution of Copper [^64Cu] chloride (pH 4.0) (40 MBq, 155 μL) was added to a mixture of the compound B (4.2 μg), gentisic acid (1 mg), and a 0.2 mol/L sodium acetate buffer solution (pH 4.0) (5.0 μL). The solution was heated to 100° C. for 15 minutes and left to stand for 5 minutes at room temperature, thereby obtaining [^64Cu]-(compound B). […] The radiochemical purity measured immediately after the compound was prepared and measured after 24 hours at room temperature was equal to or higher than 90%.
(§2) A gallium [^67Ga] chloride solution (200 MBq, 63 μL) was added to a mixed solution of the compound A (21 μg), gentisic acid (1.0 mg), a 0.2 mol/L sodium acetate buffer solution (pH 4.0, 730.7 μL), and 4.5 mol/L aqueous sodium hydroxide solution (6.3 μL). The solution was heated to 100° C. for 15 minutes and then left to stand for 5 minutes at room temperature, thereby obtaining [^67Ga]-(compound A).
A lutetium [^177Lu] chloride solution (666 MBq, 333 μL) dissolved in a 0.2 mol/L sodium acetate buffer solution (pH 4.0) was added to a mixed solution of the compound A (70.0 μg), gentisic acid (1.8 mg), and a 0.2 mol/L sodium acetate buffer solution (pH 4.0, 83.3 μL). The solution was heated to 100° C. for 15 minutes and then left to stand for 5 minutes at room temperature, thereby obtaining [^177Lu]-(compound A).
as §2, with “(40” for “(200”, “11.7” for “63”, “B (4.1” for “A (21”, “4.5, 147.13” for “4.0, 730.7”, “(1.17” for “(6.3”, “B).” for “A).”

[4] = Absorbed dose in a human being simulated with OLINDA/EXM 1.0 from monkey organ distribution
Experimental: Blood was collected from a crab-eating macaque over time, and by using [^111In]-(compound A), from the radioactivity concentration in the blood, kinetic parameters of the compound in blood were calculated by OLINDA/EXM 1.0. Furthermore, by using [^111In]-(compound A), from the organ distribution obtained by imaging, the absorbed dose of each organ obtained in a case where the compound is administered to a human being was calculated using OLINDA/EXM 1.0. [^111In]-(compound A) (98 MBq/9.3 μg) was administered to a crab-eating macaque (Hamri Co., Ltd., males, 3-year-old, 3.4 kg) under anesthesia. After the administration, blood was collected over time, and imaging was performed using a gamma camera. The blood was collected 10, 30, and 60 minutes after the administration and 2, 4, 5, 6, 24, 48, 72, and 144 hours after the administration. Regarding the imaging, after 1, 2, 4, 6, 24, 48, 72, and 144 hours, planar imaging was performed using a gamma camera (Symbia, Siemens Healthcare GmbH). Regarding the anesthesia, the animal was anesthetized with ketamine at 20 mg/kg before the administration of [^111In]-(compound A) and kept anesthetized until the end of imaging, which was continued for 6 hours after the administration, by inhalation anesthesia (isofluran 2 to 3%, 5 to 8 L/min). After 24 hours, ketamine (20 mg/kg) and xylazine (2 mg/kg) were administered to perform blood collection and imaging.
Furthermore, by using exposure dose analysis software OLINDA/EXM 1.0, the absorbed dose in a human being was simulated using each of the labeled compounds, and the results are shown below.

Cc1cc(OCCCC(=O)NCCNC(=O)[C@H](CS(=O)(=O)O)NC(=O)CC[C@H](C(=O)O)N2CCN(CC(=O)O)CCN(CC(=O)O)CC2)cc(C)c1S(=O)(=O)N[C@@H](CNC(=O)CCCCc1ccc2c(n1)NCCC2)C(=O)O [Compound B, 2,2′-(7-((R)-1-carboxy-4-(((R)-1-((2-(4-(4-(N—((S)-1-carboxy-2-(5-(5,6,7,8-tetrahydro-1,8-naphthyridin-2-yl)pentanamide)ethyl)sulfamoyl)-3,5-dimethylphenoxy)butanamide)ethyl)amino)-1-oxo-3-sulfopropan-2-yl)amino)-4-oxobutyl)-1,4,7-triazonane-1,4-diyl)diacetic acid]
IC50 (integrin αvβ3): < 1 nM | IC50 (integrin αvβ5): < 1 nM

Cc1cc(OCCCC(=O)NCCNC(=O)[C@H](CS(=O)(=O)O)NC(=O)CN2CCN(CC(=O)O)CCN(CC(=O)O)CCN(CC(=O)O)CC2)cc(C)c1S(=O)(=O)N[C@@H](CNC(=O)CCCCc1ccc2c(n1)NCCC2)C(=O)O [Compound A, 2,2′,2″-(10-(2-(((R)-1-((2-(4-(4-(N—((S)-1-carboxy-2-(5-(5,6,7,8-tetrahydro-1,8-naphthyridin-2-yl)pentanamide)ethyl)sulfamoyl)-3,5-dimethylphenoxy)butanamide)ethyl)amino)-1-oxo-3-sulfopropan-2-yl)amino)-2-oxoethyl)-1,4,7,10-tetraazacyclododecane-1,4,7-triyl)triacetic acid]
IC50 (integrin αvβ3): < 1 nM | IC50 (integrin αvβ5): < 1 nM

Cc1cc(OCCCC(=O)NCCNC(=O)C(CS(=O)(=O)O)NC(=O)CN2CCN(CC(=O)[O-])CCN(CC(=O)O)CCN(CC(=O)[O-])CC2)cc(C)c1S(=O)(=O)NC(CNC(=O)CCCCc1ccc2c(n1)NCCC2)C(=O)O.[64Cu+2] (stereo not drawn) [[^64Cu]-(compound A)]
radioactivity concentration in tumor at the time of dissection (U87MG cells [1]): 5.6 % ID/g | Radioactivity concentration in tumor After 4 hours (U87MG cells [2]; 4 hours): 9.25 % ID/g | Radioactivity concentration in tumor After 24 hours (U87MG cells [2]; 24 hours): 8.48 % ID/g | radiochemical purity immediately after preparation and after 22 hours at room temperature [3]: ≥ 90% | Absorbed dose Brain [4]: 0.11 mGy/MBq | Absorbed dose Kidney [4]: 0.69 mGy/MBq | Absorbed dose Liver [4]: 0.09 mGy/MBq | Absorbed dose Lung [4]: 0.08 mGy/MBq | Absorbed dose Red marrow [4]: 0.01 mGy/MBq | Absorbed dose Small intestine [4]: 0.06 mGy/MBq | Absorbed dose Whole body [4]: 0.02 mGy/MBq

Source: US20240108607A1, “METHOD FOR MANUFACTURING NOVEL NITROGEN-CONTAINING COMPOUND OR SALT THEREOF AND MANUFACTURING INTERMEDIATE OF NOVEL NITROGEN-CONTAINING COMPOUND OR SALT THEREOF” (FUJIFILM Corporation, priority 2015, published 2024)
